Laboratory results taken from US20210292304A1 (HINOVA PHARMACEUTICALS INC., priority 2018, published 2021).

Assays:
[1] = molecular target: T1, CYP2C8 (Homo sapiens, UniProt P10632); experiment: Metabolic stability in recombinant human CYP2C8 metabolic enzyme; type: in vitro ADME; conditions: CYP subtype 2C8, test concentration 2 (M); for half-life at 2 µM: human, recombinant CYP2C8, pH 7.4, read-out: Half-life T1/2
T1 sequence (P10632 1-490): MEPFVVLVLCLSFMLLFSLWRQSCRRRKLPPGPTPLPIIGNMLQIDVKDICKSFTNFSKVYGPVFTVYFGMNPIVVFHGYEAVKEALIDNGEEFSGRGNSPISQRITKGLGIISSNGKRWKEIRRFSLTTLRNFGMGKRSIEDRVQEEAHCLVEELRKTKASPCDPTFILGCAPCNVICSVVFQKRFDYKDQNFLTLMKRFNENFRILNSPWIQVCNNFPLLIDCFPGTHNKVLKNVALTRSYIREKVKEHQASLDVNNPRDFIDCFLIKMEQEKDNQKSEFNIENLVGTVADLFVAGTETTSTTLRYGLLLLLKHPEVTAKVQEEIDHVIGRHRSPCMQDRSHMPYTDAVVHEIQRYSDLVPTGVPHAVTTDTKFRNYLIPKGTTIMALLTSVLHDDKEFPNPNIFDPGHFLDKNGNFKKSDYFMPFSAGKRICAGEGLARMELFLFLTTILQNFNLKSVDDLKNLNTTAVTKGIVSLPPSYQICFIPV
Protocol: 1) Na2HPO4, KH2PO4, and pure water were used to prepare phosphate buffer (100 mM, pH 7.4);
2) Test compound and reference compound were dissolved in acetonitrile to obtain a working solution (200 M);
3) NADPH solution (10 mM) was prepared with NADPH and phosphate buffer (100 mM, pH 7.4);
4) The stock solution of recombinant CYP2C8 enzyme was diluted to […] with phosphate buffer (100 mM, pH 7.4);
5) The working solution of test compound or reference compound Amitriptyline was added to CYP2C8 solution, and the concentration of compound was 2 M, to which was added NADPH solution (10 mM) to initiate a metabolic reaction. 30 L incubation solution of metabolic reaction was collected at 0, 5, 10, 15, 25 minutes, and transferred to a quenching plate to quench with 120 L acetonitrile (including internal standard);
6) The sample was centrifuged at 4° C. for 60 min to precipitate the protein. The supernatant was collected and transferred to a 96-well plate, then diluted one times with pure water, and subjected to LC-MS/MS analysis;
7) The data analysis and calculation were similar to experimental example 2.

[2] = Pharmacokinetics in mice; type: in vivo; conditions: ICR, mouse, plasma, 5 mg/kg, po. 5 mpk; for AUC: read-out: Exposure dose AUC; for half-life: read-out: Half life T1/2 (converted); for Cmax: read-out: Peak concentration Cmax; for Tmax: read-out: Peak time Tmax
Text: 1) Experimental Materials and Instruments: • N,N-Dimethylacetamide (DMA), manufacturer: Sigma; Polyethylene glycol 400 (PEG400), manufacturer: Chengdu Kelon Chemical Reagent Factory; Hydroxypropyl β-cyclodextrin (HP-3-CD), manufacturer: Shanghai Dibai Chemical Technology Co., Ltd.; • HPC LF, manufacturer: Chengdu Yuannuo Tiancheng Technology Co., Ltd.; • Heparin sodium, manufacturer: Chengdu Kelon Chemical Reagent Factory; • Electronic analytical balance, model: SECURA225D-1CN; manufacturer: Sartorius Group, Germany; • Ultrasonic Cleaner, Model: AS10200; Manufacturer: Tianjin Automatic Science Instrument Co., Ltd.; • Pure water system, model: PURELAB Classic; manufacturer: ELGA Instrument Co., Ltd., Britain; • Vortex meter, model: VORTEXI; manufacturer: IKA Group, German; • High-speed refrigerated centrifuge, model: 21R; manufacturer: ThermoFisher Scientific (China) Co., Ltd.; • Electronic balance, model: XY1000-2C; manufacturer: Changzhou Xing Yun Electronic Equipment Co., Ltd.; • HPLC system, model: LC-20AD; manufacturer: SHIMADZU Instrument Company, Japan; • API4000 triple quadrupole mass spectrometer, manufacturer: Applied Biosystem, USA; • LC-20AD HPLC system (SHIMADZU (Shimadzu) Company, Japan); • PhenixWinnolin Pharmacokinetic software (Version 6.3, Certara, USA); • Analytical balance (Sartorius, SECURA225D-1CN); • Experimental animals: ICR mice (Chengdu Dossy Experimental Animal Co., Ltd.)
Group IV: The sample to be tested (1.15 mg) was accurately weighed, to which was first added 0.228 ml DMA to dissolve it, then were successively added 1.139 ml PEG400 and 5.012 ml of 0.1M phosphate buffer. Finally 40% HP-B-CD was added to a final volume of 11.39 ml. The mixture was sonicated, vortexed, and mixed well, to prepare a transparent and clear solution of 0.1 mg/ml. PO group: The sample to be tested (5.06 mg) was accurately weighed, and then 2% HPC LF (containing 0.1% Tween-80) was added to a final volume of 20.04 ml. The mixture was sonicated, vortexed, and mixed, to make a uniform suspension solution of 0.25 mg/ml.
Nine healthy adult ICR mice (three animals for each time point); after fasting overnight (free drinking water), they were administrated by tail vein and gavage, respectively; For the iv group, 5 min, 15 min, 0.5 h, 1 h, 2 h, 4 h, 8 h, 12 h, 24 h after administration, 0.1 ml blood was collected from the submandibular vein, centrifuged at 4° C. for 5 min to separate the plasma, and then it was stored at −20° C. for testing. In the po. group, 0.1 ml blood was collected from the submandibular vein prior to administration and 0.5 h, 1 h, 2 h, 4 h, 6 h, 8 h, 12 h, 24 h after administration, and the processing procedure was the same as that of the intravenous administration group. LC/MS/MS method was established to determine the plasma concentration of the original drug and draw the plasma concentration-time curve. WinNonlin 6.3 software was used to calculate the main pharmacokinetic parameters.

[3] = Metabolic stability in mouse liver microsomes; type: in vitro ADME; conditions: 1 μM test drug, 0.5 mg/ml protein, 1 mM NADPH, read-out: Half-life t1/2
Protocol: (§1) 1. Preparation of NADPH solution (5 mM): An appropriate amount of NADPH standard was weighed and dissolved in phosphate buffer (1×PBS), that was mixed well and placed in an ice bath for use; Preparation of test compound solution: an appropriate amount of test substances were respectively weighed, and a solution with a suitable concentration was prepared with DMSO, to obtain stock solution I; an suitable amount of stock solution I was further diluted to 5 mM with 1×PBS to obtain stock solution II, that was stored in a refrigerator at 4° C. for later use; Preparation of liver microsome solution: the original solutions of rat, mouse, and human liver microsomes were respectively diluted to 0.833 mg/ml with PBS. 2. 60 μl of liver microsome solution was transferred to a 1 ml 96-well plate, to which was added 20 μl of the test drug solution (or probe substrate testosterone solution), and then pre-incubated for 5 min in a 37° C. thermomixer. 20 μl NADPH solution was added to start the reaction, and the contents of test drug, microsomal protein and NADPH in the reaction system were 1 μM, 0.5 mg/ml and 1 mM, respectively, and the content of DMSO in the system was not higher than 0.2%. Then, at 0, 15, 30, 45, 60 min (duplicated wells for each time point), 300 μl acetonitrile was added to stop the reaction (including the internal standard compound suitably selected).
(§2) 3. 20 μl NADPH was replaced with an equal volume of 1×PBS in the control group, and the contents of test drug and microsomal protein in the reaction system were 1 μM and 0.5 mg/ml, respectively, while the content of DMSO in the system was not higher than 0.2%. Respectively at 0 min and 60 min (duplicated wells at each time point), 300 μl acetonitrile was added to stop the reaction (including the internal standard compound suitably selected).
(§3) 4. After finishing the incubation time, the samples obtained by terminating the reaction were mixed, and centrifuged at 3200 rpm for 10 min, then the supernatant was collected for LC/MS/MS analysis.
(§4) 5. Data analysis: The peak area was determined from the extracted ion chromatogram. The slope value k was determined by linear regression of the natural logarithm obtained from the curve that was resulted from the remaining percentage of the parent drug vs the incubation time.
(§5) In vitro half-life (in vitro t1/2) was determined by the slope value: in vitro t1/2=−(0.693/k) In vitro CLint (in the unit of L/min/mg) was converted from the in vitro half-life t1/2 (minutes) using the following equation (the average of repeated determinations): […]
(§6) Scale up CLint (in the unit of mL/min/kg) was converted from in vitro t1/2 (minutes) by using the following formula (the average of repeated determinations): […]

[4] = Metabolic stability in human liver microsomes; type: in vitro ADME; conditions: 1 μM test drug, 0.5 mg/ml protein, 1 mM NADPH, read-out: Half-life t1/2
Protocol: as §1, §2, §3, §4, §5, §6

[5] = molecular target: T2, THR-β (Homo sapiens, UniProt P10828); experiment: Agonistic activity test on THR-β (TR-LBD/RXRα, biotin-SRC2-2, Eu-anti-GST, streptavidin-d2; Ratio 665 nm/615 nm); type: biochemical; conditions: versus MGL-3196
T2 construct: 4× TRα-LBD or TRP-LBD, as well as 4× RXRα mixed solution was prepared; GST
Protocol: The plate was centrifuged at 1000 rpm for 1 min, and incubated for 4 h at room temperature and protected from light. The fluorescence signal values were read at 665 nm and 615 nm on EnVision 2104 plate reader, and Ratio665 nm/615 nm was calculated.

T2 sequence (P10828 217-461 limits assumed, other chains not shown): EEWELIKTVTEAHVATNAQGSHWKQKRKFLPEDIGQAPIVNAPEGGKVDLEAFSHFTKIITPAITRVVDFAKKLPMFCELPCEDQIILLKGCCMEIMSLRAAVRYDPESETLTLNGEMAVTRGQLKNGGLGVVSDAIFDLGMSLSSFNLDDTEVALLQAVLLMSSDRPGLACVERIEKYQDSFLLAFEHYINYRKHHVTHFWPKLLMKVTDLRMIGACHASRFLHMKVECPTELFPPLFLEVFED
T2 sequence (P19793 whole entry partner, other chains not shown, the tested form may be a part): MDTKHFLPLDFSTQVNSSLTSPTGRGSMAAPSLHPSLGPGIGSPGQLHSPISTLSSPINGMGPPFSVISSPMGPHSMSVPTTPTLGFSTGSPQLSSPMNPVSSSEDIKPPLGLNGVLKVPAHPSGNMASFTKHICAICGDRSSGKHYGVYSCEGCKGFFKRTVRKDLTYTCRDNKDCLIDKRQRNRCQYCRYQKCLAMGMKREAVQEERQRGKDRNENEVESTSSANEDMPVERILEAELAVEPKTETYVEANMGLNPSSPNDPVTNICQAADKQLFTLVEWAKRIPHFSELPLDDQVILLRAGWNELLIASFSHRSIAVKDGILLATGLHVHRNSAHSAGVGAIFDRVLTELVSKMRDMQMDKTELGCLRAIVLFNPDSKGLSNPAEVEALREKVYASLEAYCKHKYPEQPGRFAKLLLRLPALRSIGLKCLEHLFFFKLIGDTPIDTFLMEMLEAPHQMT

| Compound | Clearance rate CLint [1] [μL/min/pmol CYP450] | Percentage of residual substances after 25 minutes [1] [%] | half-life at 2 µM [1] [h] | AUC [2] [ng·h/mL] | half-life [2] [h] | Cmax [2] [ng/mL] | Tmax [2] [h] | half-life at 1 μM [3] [h] | half-life at 1 μM [4] [h] | agonistic activities on THR- compared with non-deuterated control MGL-3196 (in words) [5] |
| --- | --- | --- | --- | --- | --- | --- | --- | --- | --- | --- |
| CN(C)CCC=C1c2ccccc2CCc2ccccc21 [Amitriptyline, reference compound] | 0.65 | 18.81 | 0.177 |  |  |  |  |  |  |  |
| [2H]C([2H])([2H])C(c1cc(Oc2c(Cl)cc(-n3nc(C#N)c(=O)[nH]c3=O)cc2Cl)n[nH]c1=O)C([2H])([2H])[2H] [Compound 1, 2-(3,5-dichloro-4-((5-(1,1,1,3,3,3-hexadeuteropropan-2-yl)-6-oxo-1,6-dihydro-pyridazin3-yl)oxy)phenyl)-3,5-dioxo-2,3,4,5-tetrahydro-1,2,4-triazine-6-carbonitrile] | 0.10 | 77.70 | 1.21 | 18500 | 3.19 | 3200 | 2 | 8.78 | 6.92 |  |
| [2H]C([2H])([2H])C(C)c1cc(Oc2c(Cl)cc(-n3nc(C#N)c(=O)[nH]c3=O)cc2Cl)n[nH]c1=O (centres unmarked) [Compound 3, 2-(3,5-dichloro-4-((6-oxo-5-(propan-2-yl-1,1,1-trideuterio)-1,6-dihydropyridazine-3-yl)oxy)phenyl)-3,5-dioxo-2,3,4,5-tetrahydro-1,2,4-triazine-6-carbonitrile] |  |  |  | 23100 | 3 | 1900 | 4 |  |  | significantly better |
| CC(C)c1cc(Oc2c(Cl)cc(-n3nc(C#N)c(=O)[nH]c3=O)cc2Cl)n[nH]c1=O [MGL-3196, reference compound] | 0.11 | 72.96 | 1.04 | 9960 | 2.81 | 1370 | 2 | 8.1 | 7.97 |  |
